From US8269026B2, “Lupane derivatives useful for treating HIV” (priority 2008, dated 2012)
Where two headings read alike, the source gives them in different places.

Tested on: HIV-1 (HIVIIIB) replication in MT2 cell line
Assay: HIV-1 replication in MT2 cell line with and without 30% human serum (viral RT activity in supernatant)
Type: cell-based
Details: Human immunodeficiency virus 1, MT2 cells, average IC50 if tested more than once
Procedure: HIV-1 Replication in MT2 cell line with and without 30% human serum: The cells are infected at a Multiciplicity of Infection (MOI) of 0.5 for 3 h and then washed twice with complete media to remove residual virus. Cells are then resuspended at 0.5×10^6/ml in complete medium (RPMI, 10% FBS, 1% sodium pyruvate), and seeded into 96-well plates (6.25×10^4/well). The cells are cultured in the presence or absence of various concentrations of test compounds in serial dilutions for 3 days at 37° C. The test compounds are serially diluted in complete medium supplemented or not with 30% human serum. After 3 days, 100 μL of cultured medium with cells are replaced with 120 μL of freshly diluted test compounds in complete medium containing or not 30% Human serum. The level of HIV-1 replication is determined at days 5 after infection by the presence of viral RT activity in harvested supernatant fluid. The IC50 and IC90 values for the virus replication are determined by using GRAPHPAD PRISM software.
The IC50 of the compounds tested in accordance with the HIV replication activity assay MT2 (HIVIIIB) are represented in Table 1.

[1] = with 30% human serum, read-out: MT2 (HIVIIIB) with HS 30% IC50 range
[2] = without human serum, read-out: MT2 (HIVIIIB) IC50 range

Structure (SMILES)	IC50 [1]	IC50 [2]
Cc1nc(C(=O)N[C@@]23CC[C@]4(C)C(CCC5[C@@]6(C)CC[C@H](OC(=O)CC(C)(C)C(=O)O)C(C)(C)C6CC[C@]54C)C2=C(C(C)C)C(=O)C3)no1 (stereo partly drawn) [19-68, 3β-O-(3′,3′-Dimethylsuccinyl)-17β-(5-methyl-[1,2,4]oxadiazole-3-amido)-21-oxolup-18-ene]	< 199 nM	–
Cc1nnc(C(=O)N[C@@]23CC[C@]4(C)C(CCC5[C@@]6(C)CC[C@H](OC(=O)CC(C)(C)CC(=O)O)C(C)(C)C6CC[C@]54C)C2=C(C(C)C)C(=O)C3)o1 (stereo partly drawn) [19-75, 3β-O-(3′,3′-Dimethylglutaryl)-17β-(5-methyl-[1,3,4]oxadiazole-2-amido)-21-oxolup-18-ene]	< 199 nM	–
CNC1CCN(C(=O)N[C@@]23CC[C@]4(C)C(CCC5[C@@]6(C)CC[C@H](OC(=O)CC(C)(C)C(=O)O)C(C)(C)C6CC[C@]54C)C2=C(C(C)C)C(=O)C3)CC1 (stereo partly drawn) [17-39, 3β-O-(3′,3′-Dimethylsuccinyl)-17β-[(4-methylamino-piperidine-1-carbonyl)-amino]-21-oxolup-18-ene]	200 to 999 nM	–
CC(C)C1=C2C3CCC4[C@@]5(C)CC[C@H](OC(=O)CC(C)(C)C(=O)O)C(C)(C)C5CC[C@@]4(C)[C@]3(C)CC[C@@]2(NC(=O)OCCC2CC2)CC1=O (stereo partly drawn) [20-22, 3β-O-(3′,3′-Dimethylsuccinyl)-17β-(2-cyclopropyl-1-ethoxycarbonylamino)-21-oxolup-18-ene]	< 199 nM	–
CC(=O)N1CCN(C(=O)N[C@@]23CC[C@]4(C)[C@H](CC[C@@H]5[C@@]6(C)CC[C@H](OC(=O)CC(C)(C)C(=O)O)C(C)(C)[C@@H]6CC[C@]54C)C2=C(C(C)C)C(=O)C3)CC1 [17-17, 3β-O-(3′,3′-Dimethylsuccinyl)-17β-[(4-acetyl-piperazine-1-carbonyl)-amino]-21-oxolup-18-ene]	< 199 nM	–
CC(C)C1=C2C3CCC4[C@@]5(C)CC[C@H](OC(=O)CC(C)(C)C(=O)O)C(C)(C)C5CC[C@@]4(C)[C@]3(C)CC[C@@]2(NC(=O)C(C)(C)C)CC1=O (stereo partly drawn) [19-32, 3β-O-(3′,3′-Dimethylsuccinyl)-17β-tert-butylamido-21-oxolup-18-ene]	< 199 nM	–
CC(C)C1=C2C3CCC4[C@@]5(C)CC[C@H](OC(=O)CC(C)(C)C(=O)O)C(C)(C)C5CC[C@@]4(C)[C@]3(C)CC[C@@]2(NC(=O)NC(C)(C)C)CC1=O (stereo partly drawn) [17-5, 3β-O-(3′,3′-Dimethylsuccinyl)-17β-[N′-(tert-butyl)ureido]-21-oxolup-18-ene]	< 199 nM	< 199 nM
Cc1cc(C(=O)N[C@@]23CC[C@]4(C)[C@H](CC[C@@H]5[C@@]6(C)CC[C@H](OC(=O)CC(C)(C)C(=O)O)C(C)(C)[C@@H]6CC[C@]54C)C2=C(C(C)C)C(=O)C3)cc(C)n1 [19-64, 3β-O-(3′,3′-Dimethylsuccinyl)-17β-(2,6-dimethylpyridin-4-yl)amido-21-oxolup-18-ene]	< 199 nM	–
CC(C)C1=C2C3CCC4[C@@]5(C)CC[C@H](OC(=O)CC(C)(C)C(=O)O)C(C)(C)C5CC[C@@]4(C)[C@]3(C)CC[C@@]2(NC(=O)c2ccccc2C(=O)O)CC1=O (stereo partly drawn) [19-61, 3β-O-(3′,3′-Dimethylsuccinyl)-17β-(2-carboxy-benzamido)-21-oxolup-18-ene]	< 199 nM	–
Cc1nnc(NC(=O)N[C@@]23CC[C@]4(C)C(CCC5[C@@]6(C)CC[C@H](OC(=O)CC(C)(C)C(=O)O)C(C)(C)C6CC[C@]54C)C2=C(C(C)C)C(=O)C3)s1 (stereo partly drawn) [17-45, 3β-O-(3′,3′-Dimethylsuccinyl)-17β-(N′-5-methyl-[1,3,4]thiadiazol-2-yl-ureido)-21-oxolup-18-ene]	< 199 nM	–
Cc1cc(NC(=O)N[C@@]23CC[C@]4(C)[C@H](CC[C@@H]5[C@@]6(C)CC[C@H](OC(=O)CC(C)(C)C(=O)O)C(C)(C)[C@@H]6CC[C@]54C)C2=C(C(C)C)C(=O)C3)ccn1 [17-47, 3β-O-(3′,3′-Dimethylsuccinyl)-17β-(N′-2-methylpyridin-4-yl-ureido)-21-oxolup-18-ene]	< 199 nM	–
Cc1cnc(C(=O)N[C@@]23CC[C@]4(C)C(CCC5[C@@]6(C)CC[C@H](OC(=O)CC(C)(C)C(=O)O)C(C)(C)C6CC[C@]54C)C2=C(C(C)C)C(=O)C3)o1 (stereo partly drawn) [19-80, 3β-O-(3′,3′-Dimethylsuccinyl)-17β-(5-methyl-[1,3]-oxazole-2-amido)-21-oxolup-18-ene]	< 199 nM	–
CC(C)C1=C2[C@H]3CC[C@@H]4[C@@]5(C)CC[C@H](OC(=O)CC(C)(C)C(=O)O)C(C)(C)[C@@H]5CC[C@@]4(C)[C@]3(C)CC[C@@]2(NC(=O)NC2CCN(C(=O)OC(C)(C)C)CC2)CC1=O [17-9, 3β-O-(3′,3′-Dimethylsuccinyl)-17β[N′-(1-tert-butyloxycarbonyl-piperidin-4-yl)-ureido]-21-oxolup-18-ene]	< 199 nM	–
CC(C)C1=C2C3CCC4[C@@]5(C)CC[C@H](OC(=O)CC(C)(C)C(=O)O)C(C)(C)C5CC[C@@]4(C)[C@]3(C)CC[C@@]2(NC(=O)NC2CC2)CC1=O (stereo partly drawn) [17-22, 3β-O-(3′,3′-Dimethylsuccinyl)-17β-(N′-cyclopropyl-ureido)-21-oxolup-18-ene]	< 199 nM	–
CC(C)C1=C2C3CCC4[C@@]5(C)CC[C@H](OC(=O)CC(C)(C)C(=O)O)C(C)(C)C5CC[C@@]4(C)[C@]3(C)CC[C@@]2(NC(=O)c2nccn2C)CC1=O (stereo partly drawn) [19-26, 3β-O-(3′,3′-Dimethylsuccinyl)-17β-(1-methyl-1H-imidazole-2-amido)-21-oxolup-18-ene]	< 199 nM	–
CC(C)C1=C2[C@H]3CC[C@@H]4[C@@]5(C)CC[C@H](OC(=O)CC(C)(C)C(=O)O)C(C)(C)[C@@H]5CC[C@@]4(C)[C@]3(C)CC[C@@]2(NC(=O)c2ccccc2)CC1=O [19-2, 3β-O-(3′,3% Dimethylsuccinyl)-17β-benzamido-21-oxolup-18-ene]	< 199 nM	< 199 nM
CC(C)C1=C2C3CCC4[C@@]5(C)CC[C@H](OC(=O)CC(C)(C)C(=O)O)C(C)(C)C5CC[C@@]4(C)[C@]3(C)CC[C@@]2(NC(=O)OCCN2CCCC2=O)CC1=O (stereo partly drawn) [20-24, 3β-O-(3′,3′-Dimethylsuccinyl)-17β-(2-(2-oxo-pyrrolidin)-1-ethoxycarbonylamino)-21-oxolup-18-ene]	< 199 nM	–
CC(C)C1=C2[C@H]3CC[C@@H]4[C@@]5(C)CC[C@H](OC(=O)CC(C)(C)C(=O)O)C(C)(C)[C@@H]5CC[C@@]4(C)[C@]3(C)CC[C@@]2(NC(=O)CN2CCN(C)CC2)CC1=O [19-54, 3β-O-(3′,3′-Dimethylsuccinyl)-17β-(4-methylpiperazine-1-acetamido)-21-oxolup-18-ene]	< 199 nM	–
Cc1ccc(C(=O)N[C@@]23CC[C@]4(C)[C@H](CC[C@@H]5[C@@]6(C)CC[C@H](OC(=O)CC(C)(C)C(=O)O)C(C)(C)[C@@H]6CC[C@]54C)C2=C(C(C)C)C(=O)C3)cn1 [19-48, 3β-O-(3′,3′-Dimethylsuccinyl)-17β-(6-methylpyridin-3-yl)amido-21-oxolup-18-ene]	< 199 nM	–
CC(C)C1=C2C3CCC4[C@@]5(C)CC[C@H](OC(=O)CC(C)(C)C(=O)O)C(C)(C)C5CC[C@@]4(C)[C@]3(C)CC[C@@]2(NC(=O)Cc2ccccc2)CC1=O (stereo partly drawn) [19-29, 3β-O-(3′,3′-Dimethylsuccinyl)-17β-phenylacetamido-21-oxolup-18-ene]	< 199 nM	–
CC(C)C1=C2C3CCC4[C@@]5(C)CC[C@H](OC(=O)CC(C)(C)C(=O)O)C(C)(C)C5CC[C@@]4(C)[C@]3(C)CC[C@@]2(NC(=O)OC2CCN(C(=O)OC(C)(C)C)CC2)CC1=O (stereo partly drawn) [20-6, 3β-O-(3′,3′-Dimethylsuccinyl)-17β-[(1-carboxylic acid tert-butyl ester)-piperidine-4-oxycarbonylamino]-21-oxolup-18-ene]	< 199 nM	< 199 nM
CC(C)C1=C2[C@H]3CC[C@@H]4[C@@]5(C)CC[C@H](OC(=O)CC(C)(C)C(=O)O)C(C)(C)[C@@H]5CC[C@@]4(C)[C@]3(C)CC[C@@]2(NC(=O)C2CCN(C(=O)OC(C)(C)C)CC2)CC1=O [19-5, 3β-O-(3′,3′-Dimethylsuccinyl)-17β-(1-tert-butyloxycarbonylpiperidine-4-amido)-21-oxolup-18-ene]	< 199 nM	< 199 nM
COC(=O)N[C@@]12CC[C@]3(C)[C@H](CC[C@@H]4[C@@]5(C)CC[C@H](OC(=O)CC(C)(C)C(=O)O)C(C)(C)[C@@H]5CC[C@]43C)C1=C(C(C)C)C(=O)C2 [20-1, 3β-O-(3′,3′-Dimethylsuccinyl)-17β-nnethoxycarbonylamino-21-oxolup-18-ene]	< 199 nM	< 199 nM
CC(C)C1=C2C3CCC4[C@@]5(C)CC[C@H](OC(=O)CC(C)(C)C(=O)O)C(C)(C)C5CC[C@@]4(C)[C@]3(C)CC[C@@]2(NC(=O)C(C)N(C)C)CC1=O (mixture of isomers) [19-59, 3β-O-(3′,3′-Dimethylsuccinyl)-17β-((RS)-2-dimethylamino-propionamido)-21-oxolup-18-ene]	< 199 nM	–
CC(C)C1=C2[C@H]3CC[C@@H]4[C@@]5(C)CC[C@H](OC(=O)CC(C)(C)C(=O)O)C(C)(C)[C@@H]5CC[C@@]4(C)[C@]3(C)CC[C@@]2(NC2CCN(C(=O)OC(C)(C)C)CC2)CC1=O [16-1, 3β-O-(3′,3′-Dimethylsuccinyl)-17β-(1-tert-butyloxycarbonylpiperidine-4-amino]-21-oxolup-18-ene]	< 199 nM	< 199 nM
